Among the test systems are TK-10; ACHN; SF-295; Malme-3M; A549; NCI/ADR-RES; OVCAR-3; COLO 205; SNB-75; HT-29; MDA-MB-231; SK-MEL-5; IGROV-1; SF-268; NCI-H226; DU-145; SW-620; SR; HCC 2998; OVCAR-4.
What all share (experiment): NCI anticancer screen, dose series, 48 h

Each structure is given as a SMILES string.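 Cells were grown in 96-well plates and exposed to each compound for 48 hours at five concentrations; endpoints were interpolated linearly between bracketing concentrations, or set to the highest concentration if not reached. GI50 is the concentration that inhibits growth by half.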 Activity calls are given as the source filed them. No stated cut-off is given here; in the data, active = GI50 up to about 1.1 µM and inactive = higher.

In the case of `COC1CC(C)(N)C(O)C(C)O1` (stereo unspecified), the GI50 in the experiment with TK-10, with ACHN, in the experiment with SF-295, in the experiment on Malme-3M, in the experiment on A549 and in the experiment with NCI/ADR-RES was > 100 µM (inactive) each time. Moreover, the GI50 with OVCAR-3, in the experiment on COLO 205, with SNB-75, in the experiment with HT-29, with MDA-MB-231 and in the experiment with SK-MEL-5 was > 100 µM (inactive) each time. Also, the GI50 with IGROV-1, in the experiment with SF-268, in the experiment with NCI-H226, with DU-145, in the experiment on SW-620 and in the experiment with SR was > 100 µM (inactive) throughout. The GI50 in the experiment with HCC 2998 is > 100 µM (inactive).

For `CC(C)Oc1c(-c2c(OC(C)C)c(=O)c2=O)c(=O)c1=O`, the GI50 in the experiment on TK-10 was > 70.1 µM (inactive); in the experiment on ACHN, > 70.6 µM (inactive); in the experiment with SF-295, > 65 µM (inactive); in the experiment on Malme-3M, 0.344 µM (active); with A549 it was > 100 µM (inactive); in the experiment with NCI/ADR-RES it was 4.81 µM (inactive). For the same compound, the GI50 in the experiment on COLO 205 was > 29.7 µM (inactive); in the experiment on SNB-75 it was 48 µM (inactive); in the experiment on HT-29 it was > 23.1 µM (inactive); with MDA-MB-231, > 36.7 µM (inactive); in the experiment on SK-MEL-5, > 41.6 µM (inactive); with OVCAR-4, > 49.7 µM (inactive). The GI50 in the experiment with IGROV-1 was > 31.7 µM (inactive); in the experiment on SF-268 it was > 47.3 µM (inactive); in the experiment on NCI-H226, > 78.3 µM (inactive); in the experiment with DU-145 it was > 100 µM (inactive); in the experiment with SW-620, > 34.9 µM (inactive); in the experiment on SR, > 100 µM (inactive). In addition, the GI50 in the experiment with HCC 2998 was > 55.3 µM (inactive).

As to `CCN(CC)c1ccc(/C=C/c2ccnc3ccccc23)cc1`, the GI50 in the experiment with TK-10, in the experiment with ACHN, with SF-295, in the experiment on Malme-3M, with A549 and in the experiment with NCI/ADR-RES was > 100 µM (inactive) throughout. Besides, the GI50 with OVCAR-3, in the experiment with COLO 205, with SNB-75, in the experiment on HT-29, with MDA-MB-231 and in the experiment on SK-MEL-5 was > 100 µM (inactive) each time. Besides, the GI50 in the experiment on OVCAR-4, in the experiment on IGROV-1, with SF-268, with DU-145, in the experiment with SW-620 and with SR was > 100 µM (inactive) throughout. Moreover, the GI50 with HCC 2998 was > 100 µM (inactive).

Consider `O=C(c1ccccc1)c1c(-c2ccccc2)n(-c2ccccc2)[nH]c(=O)c1=O`, for which the GI50 with TK-10 is 42.5 µM (inactive); with ACHN, 22.2 µM (inactive); in the experiment with SF-295, 28.2 µM (inactive); with Malme-3M, 22.5 µM (inactive); with A549 it was > 100 µM (inactive); in the experiment on NCI/ADR-RES, 62.4 µM (inactive). The GI50 with OVCAR-3 was 37.2 µM (inactive); in the experiment on COLO 205, 75.2 µM (inactive); with HT-29 it was > 100 µM (inactive); in the experiment on MDA-MB-231 it was 20.2 µM (inactive); in the experiment on SK-MEL-5, > 100 µM (inactive); with OVCAR-4, 32.6 µM (inactive). The GI50 with IGROV-1 is 54.5 µM (inactive); in the experiment on SF-268 it was 48.6 µM (inactive); with NCI-H226, 16.5 µM (inactive); in the experiment on DU-145 it was > 100 µM (inactive); in the experiment with SR, 23.8 µM (inactive); in the experiment on HCC 2998, > 100 µM (inactive).

`Cc1ccc([N+](=O)[O-])cc1S(=O)(=O)Nc1ccc(C2=NOC(c3ccccc3)C2)cc1` (stereo unspecified): the GI50 with ACHN is 13.5 µM (inactive); with SF-295, 3.17 µM (inactive); in the experiment with Malme-3M, 8.63 µM (inactive); in the experiment on A549 it was 6.89 µM (inactive); in the experiment with NCI/ADR-RES, 3.04 µM (inactive); with OVCAR-3, 3.33 µM (inactive). In addition, the GI50 in the experiment with COLO 205 was 6.7 µM (inactive); with SNB-75 it was 8.18 µM (inactive); in the experiment with HT-29, 6.78 µM (inactive); in the experiment on MDA-MB-231, 8.99 µM (inactive); in the experiment with SK-MEL-5 it was 6.47 µM (inactive); in the experiment with OVCAR-4, 1.32 µM (inactive). Moreover, the GI50 with IGROV-1 was 5.48 µM (inactive); with SF-268 it was 12.4 µM (inactive); in the experiment with NCI-H226 it was 24.9 µM (inactive); in the experiment on DU-145, 12 µM (inactive); in the experiment with SW-620, 6 µM (inactive); in the experiment on SR it was 1.31 µM (inactive). In addition, the GI50 in the experiment on HCC 2998 is 9.04 µM (inactive).

For the compound `OCC1OC(NCCNCCNC2OC(CO)C(O)C(O)C2O)C(O)C(O)C1O` (stereo unspecified), the GI50 with TK-10, in the experiment with ACHN, with SF-295, with Malme-3M, in the experiment with A549 and with NCI/ADR-RES was > 100 µM (inactive) in each case. The GI50 with OVCAR-3, with COLO 205, in the experiment with SNB-75, in the experiment on HT-29, in the experiment on MDA-MB-231 and in the experiment with SK-MEL-5 was > 100 µM (inactive) each time. The GI50 in the experiment with IGROV-1, in the experiment with SF-268, in the experiment on NCI-H226, with DU-145, with SW-620 and in the experiment on SR was > 100 µM (inactive) in each case. Moreover, the GI50 in the experiment with HCC 2998 is > 100 µM (inactive).

Consider `O=C(N/N=C/c1ccc(O)cc1)NNCCO`, for which the GI50 with TK-10, with SF-295, in the experiment on Malme-3M, with A549, with NCI/ADR-RES and in the experiment on OVCAR-3 was > 100 µM (inactive) each time. The GI50 is > 100 µM (inactive) in the experiment on COLO 205; 50.5 µM (inactive) in the experiment on SNB-75; > 100 µM (inactive) in the experiment on HT-29; > 100 µM (inactive) in the experiment on MDA-MB-231; > 100 µM (inactive) in the experiment on SK-MEL-5; > 100 µM (inactive) in the experiment with IGROV-1. Also, the GI50 with NCI-H226, in the experiment with DU-145, with SW-620, in the experiment on SR and in the experiment with HCC 2998 was > 100 µM (inactive) in each case.

Regarding `O=C(O)/C=C/C(=O)N1Cc2cc3ccccc3nc2C1`, the GI50 in the experiment with TK-10, in the experiment with ACHN, in the experiment on SF-295, with Malme-3M, with A549 and with NCI/ADR-RES was > 100 µM (inactive) throughout. Further, the GI50 in the experiment on OVCAR-3, in the experiment with COLO 205, with SNB-75, in the experiment on HT-29, with MDA-MB-231 and with SK-MEL-5 was > 100 µM (inactive) each time. Moreover, the GI50 with IGROV-1, in the experiment on SF-268, in the experiment on NCI-H226, in the experiment on DU-145, in the experiment with SW-620 and with SR was > 100 µM (inactive) each time. In the experiment on HCC 2998, the GI50 was > 100 µM (inactive).

`CCOC(=O)c1c(SC(=O)c2cc(OC)c(OC)c(OC)c2)n(-c2ccccc2)c(=S)n(-c2ccccc2)c1=O`: the GI50 with TK-10 was > 100 µM (inactive); in the experiment on ACHN it was > 100 µM (inactive); in the experiment on SF-295 it was > 100 µM (inactive); in the experiment on Malme-3M, 51.8 µM (inactive); in the experiment with A549 it was > 100 µM (inactive); in the experiment on NCI/ADR-RES, > 100 µM (inactive). For the same compound, the GI50 in the experiment with OVCAR-3, with COLO 205, with SNB-75, with HT-29, in the experiment on MDA-MB-231 and in the experiment with OVCAR-4 was > 100 µM (inactive) throughout. Besides, the GI50 with IGROV-1, with SF-268, with NCI-H226, with DU-145, in the experiment with SW-620 and with SR was > 100 µM (inactive) each time. Besides, the GI50 in the experiment on HCC 2998 was > 100 µM (inactive).

As to `N#Cc1ccc(Oc2nc3ccc(C(F)(F)F)cc3nc2-c2ccccc2)cc1`, the GI50 is 19.5 µM (inactive) in the experiment on TK-10; 15.1 µM (inactive) with ACHN; 24.8 µM (inactive) in the experiment on SF-295; 17.8 µM (inactive) with Malme-3M; 16.7 µM (inactive) in the experiment on A549; 16.9 µM (inactive) with NCI/ADR-RES. Besides, the GI50 in the experiment on OVCAR-3 is 21.8 µM (inactive); in the experiment with COLO 205, 21.5 µM (inactive); in the experiment on SNB-75 it was 14.1 µM (inactive); with HT-29, 16.7 µM (inactive); in the experiment with MDA-MB-231, 14.5 µM (inactive); with SK-MEL-5, 19.7 µM (inactive). In addition, the GI50 in the experiment on OVCAR-4 is 16.2 µM (inactive); in the experiment on IGROV-1, 18.8 µM (inactive); in the experiment with SF-268, 24.9 µM (inactive); in the experiment with DU-145 it was 17.8 µM (inactive); in the experiment on SW-620 it was 21.3 µM (inactive); with SR it was 2.77 µM (inactive). In the experiment on HCC 2998, the GI50 was 17 µM (inactive).

For the compound `O=S(=O)(O)c1ccc(Nc2ccnc3ccccc23)cc1`, the GI50 in the experiment on TK-10, with ACHN, in the experiment on SF-295, in the experiment with Malme-3M, with A549 and in the experiment with NCI/ADR-RES was > 100 µM (inactive) each time. Also, the GI50 with COLO 205, with SNB-75, in the experiment on HT-29, with MDA-MB-231, with SK-MEL-5 and in the experiment on OVCAR-4 was > 100 µM (inactive) each time. Further, the GI50 in the experiment on IGROV-1, with SF-268, in the experiment on NCI-H226, with DU-145, in the experiment on SW-620 and in the experiment with SR was > 100 µM (inactive) each time. In the experiment on HCC 2998, the GI50 was > 100 µM (inactive).

The record behind these values is ChEMBL document CHEMBL1201862, “PubChem BioAssay data set” (2004).
